Reference: patent US20130150399A1, “INHIBITORS OF THE UNFOLDED PROTEIN RESPONSE AND METHODS FOR THEIR USE” (The Board of Trustees of the Leland Stanford Junior …, priority 2006, published 2013)

Key:
HIF-1α = test: Western immunoblot of HIF-1α, HT1080 cells under hypoxia; assay type: cell-based, human; settings: 2 μM; 24 hours of hypoxia
Experimental: Cells (2×10^6) were cultured in 10-cm dishes, collected using a cell scraper at 4° C., and lysed by addition of 150 μl cell lysis buffer [50 mM Tris pH 7.4, 150 mM NaCl, 10% glycerol, 0.5% Triton X-100. 0.5% NP-40, 2 mM Na3VO4, 20 mM beta-glycerophosphate, 10 mM NaF, 1 mM DTT, 1 mM PMSF). Lysates were centrifuged for 5 min at 10,000×g, and proteins (˜40 μg) were resolved by SDS-PAGE followed by semi-dry transfer to nitrocellulose membranes. Membranes were blocked in TBS-5% milk supplemented with 0.1% Tween-20. The blots were then probed overnight with relevant antibodies, washed, and incubated for 2 hours with species-specific secondary antibodies conjugated to horseradish peroxidase. After washing in block solution, immunoreactive material was detected by enhanced chemiluminescence (SuperSignal West Dura Extended, Pierce, Inc., Rockville, Ill.).
A. XBP-luciferase reporter construct. […] After 24 hours, luciferase activity was analyzed in an automated plate reader. For each cell line, values are expressed as the percent inhibition of the median for Tm/Tg-treated wells, corrected for background. […] Values are expressed as the fold increases over uninduced levels. […] Cells were harvested, lysed, and analyzed by immunoblotting with antisera specific for HIF-1α (top), XBP-1s (middle) or actin (bottom). […] Total RNA was analyzed by Northern blotting using radiolabeled probes specific for P58^IPK or DER-1. […]

[1] = tested on: HT1080 s.c. tumor xenografts; assay type: in vivo
Experimental: Female 4-6 week-old SCID (B6.CB 17) mice supplied by Stanford University Animal Facility were housed in the same facility (American Association of Laboratory Animal Care-approved) with 12 hour light cycles. Food and water were provided ad libitum. All experiments were approved by the institutional care and use committee. The potential toxicities of irestatin 9389 were examined in SCID mice injected i.p. once daily over 4 consecutive days with increasing doses of irestatin 9389 or vehicle control. […] For xenografts, 2×10^6 HT1080 fibrosarcoma cells were resuspended in 50-75 μl PBS and injected s.c. in the dorsal flanks of host mice. When the implanted tumors reached a mean volume of ˜150 mm^3, mice were randomly assigned into different treatment groups. Mice were dosed by i.p. bolus injection with either vehicle (50% DMSO, 20% cremophor EL, 30% ethanol) or irestatin 9389 (50 mg/kg). Tumors (6-8 per group) were measured every 2-4 days with calipers. Tumor volume was calculated using the formula [(W^2×L) 0.52] where W=width and L=length.
(§1) A. Irestatin 9389 impairs IRE1α activity in implanted tumor xenografts. Equal numbers (2×10^6) of XBP-luciferase or CMV-luciferase reporter cells were implanted s.c. into SCID mice. After one week, mice were treated with irestatin 9389 (50 mg/kg), followed by optical bioluminescence imaging. B. Inhibition of tumor growth by irestatin 9389. HT1080 s.c. tumor xenografts were established in SCID mice and allowed to reach a mean volume of 150 mm^3 before treatment. Irestatin 9389 (50 mg/kg) or vehicle control was administered q 2d by i.p. injection and continued for 2 weeks, for a total of 6 doses. Tumor volumes were calculated based on caliper measurements taken every 3-5 days. Data points represent the mean volume calculated from at least 7 tumors per group, with SEM shown in one direction. Mean mouse weights+/−SEM are shown in bottom graph. C.
Next, we tested if treatment with irestatin 9389 could have a direct impact on tumor growth. […]

XBP-luciferase reporter = test: In vivo bioluminescence imaging of XBP-luciferase reporter tumor xenografts; set-up: species or system SCID mice
Experimental: HT1080 fibrosarcoma cells (2×10^6) stably expressing the XBP-luciferase reporter were implanted s.c. into severe combined immune deficient (SCID) mice. Ten minutes prior to imaging, mice were injected i.p. with D-luciferin (150 mg/kg) solubilized in PBS. Optical bioluminescence imaging was performed using the IVIS charged-coupled device camera system (Caliper Life Sciences, Hopkinton, Mass.). Mice were imaged for 1-4 minutes per acquisition scan. Signal intensities were analyzed using Living Image software (Caliper).
as §1
The increased sensitivity of irestatin-treated cells to hypoxic stress in vitro indicate that selective inhibition of IRE1α signaling could impact tumor growth. […] In contrast, XBP-1s was not detected in normal pancreas specimens (0/20), and infrequently observed in chronic pancreatitis (1/29) (FIG. 15). To explore the effects to irestatin 9389 in vivo, we first established animal dosing parameters using real-time bioluminescence imaging of SCID mice that had been implanted subcutaneously (s.c.) with tumor cells stably expressing the XBP-luciferase reporter. […] The XBP-luciferase signal returned to basal levels by 24 hours after treatment. […] (FIG. 16).

## Cc1csc(NC(=O)CSc2nc3c(c(C(F)(F)F)c2C#N)CCC3)n1 [Compound 9389]
HIF-1α
  expression of HIF-1α: not affected
[1]; 50 mg/kg i.p. every other day, 6 doses
  antitumor effects: significant cytostatic antitumor effects
[1]; 50 mg/kg i.p. every other day, 6 doses, one week after the last treatment, P<0.01
  mean tumor volume: 480+/−210 mm^3
[1]; mouse, in vivo
  weight loss compared to vehicle-treated mice: did not exhibit significant long-term weight loss
XBP-luciferase reporter; after treatment, 50-60 mg/kg
  time by which XBP-luciferase signal returned to basal levels: ≤ 24 h
XBP-luciferase reporter; single doses of 50-60 mg/kg
  duration of XBP-luciferase reporter inhibition after the injection: 6 to 8 h
  inhibition of XBP-luciferase reporter in tumors: robustly inhibited
